# Experimental data taken from PubChem BioAssay (NCI).
#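 Five compound concentrations were applied to cells in 96-well plates for 48 hours; endpoints were derived by simple linear interpolation of the resulting dose-response curve. Definition used: TGI = concentration required for complete inhibition of growth.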
# Experiments:
# Experiment in all cases: NCI anticancer screen, dose series, 48 h
# DU-145 prostate = test system: DU-145 prostate
# HOP-62 NSCLC = test system: HOP-62 NSCLC
# 786-0 renal = test system: 786-0 renal
# NCI-H226 lung = test system: NCI-H226 lung
# SNB-19 CNS = test system: SNB-19 CNS
# OVCAR-5 ovarian = test system: OVCAR-5 ovarian
# SW-620 colon = test system: SW-620 colon
# BT-549 breast = test system: BT-549 breast
# SR leukemia = test system: SR leukemia
# SK-MEL-28 melanoma = test system: SK-MEL-28 melanoma
# OVCAR-4 ovarian = test system: OVCAR-4 ovarian
# COLO 205 colon = test system: COLO 205 colon
# SF-268 CNS = test system: SF-268 CNS
# RPMI-8226 leukemia = test system: RPMI-8226 leukemia
# NCI-H460 lung = test system: NCI-H460 lung
# HCC-2998 colon = test system: HCC-2998 colon
# CAKI-1 renal = test system: CAKI-1 renal
# TK-10 renal = test system: TK-10 renal
# OVCAR-3 ovarian = test system: OVCAR-3 ovarian
# UO-31 renal = test system: UO-31 renal
Compound,TGI (DU-145 prostate) [µM],TGI (HOP-62 NSCLC) [µM],TGI (786-0 renal) [µM],TGI (NCI-H226 lung) [µM],TGI (SNB-19 CNS) [µM],TGI (OVCAR-5 ovarian) [µM],TGI (SW-620 colon) [µM],TGI (BT-549 breast) [µM],TGI (SR leukemia) [µM],TGI (SK-MEL-28 melanoma) [µM],TGI (OVCAR-4 ovarian) [µM],TGI (COLO 205 colon) [µM],TGI (SF-268 CNS) [µM],TGI (RPMI-8226 leukemia) [µM],TGI (NCI-H460 lung) [µM],TGI (HCC-2998 colon) [µM],TGI (CAKI-1 renal) [µM],TGI (TK-10 renal) [µM],TGI (OVCAR-3 ovarian) [µM],TGI (UO-31 renal) [µM]
Cn1c(-c2cccs2)cc(-c2ccccc2)c1-c1cccs1,> 100,51.5,> 100,> 100,47.5,> 100,> 100,> 100,> 100,> 100,> 100,> 100,> 100,> 100,> 100,> 100,> 100,> 100,47.6,> 100
COC(=O)CC1C(COC(C)=O)OC(n2cc(C)c(=O)[nH]c2=O)C1OC(C)=O (stereo not given),> 100,> 100,> 100,> 100,> 100,> 100,> 100,> 100,> 100,> 100,> 100,> 100,> 100,> 100,> 100,> 100,> 100,> 100,> 100,> 100
CN(C)Cc1cc(N=Nc2cccc(Cl)c2)ccc1O,27.9,22.9,27.4,50.7,51.3,30.1,23.7,34,54.5,26.9,34.7,38.5,40.3,55.8,26.4,27.9,61.1,23.2,28.9,23.3
